# Assay results: ChEMBL document CHEMBL4706727, “Discovery of 2,4-1H-Imidazole Carboxamides as Potent and Selective TAK1 Inhibitors” (ACS Med Chem Lett, 2021)
# Tested on: HCT-15
# Assay: Cytotoxicity against TNFalpha-induced human HCT-15 cells assessed as reduction in cell viability preincubated for 2 hrs followed by TNFalpha stimulation and measured after 72 hrs by celltiter-glo assay
# Format: functional, cell-based
structure (smiles),measurement,value
COc1cc(O)c2c(c1)/C=C/C[C@H](O)[C@H](O)C(=O)/C=C\C[C@H](C)OC2=O,EC50,2 nM
